Test results: US20250296953A1, “3,4-THIAZOLO-STEROIDS AND METHODS OF MAKING AND USING THE SAME” (Arkansas State University - Jonesboro, priority 2018, published 2025)
Where two headings read alike, the source gives them in different places.

What was measured:
LOX IMVI = assay: Melanoma cytotoxicity assay (resazurin); format: cell-based; details: human, 24 h
Procedure, shortened: (§1)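 ~4000 cells/well seeded 24 h, then compound added in triplicate for 24 h at 37° C, 5% CO2. Resazurin added for 6 h; fluorescence at 544/590 nm, background-subtracted and normalised to DMSO wells as % viability; IC50 from sigmoidal fit of serial dilutions.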

SK-MEL-5 = assay: Melanoma cytotoxicity assay (resazurin); format: cell-based; details: human, 24 h
Procedure, shortened: as §1

MALME-3M = assay: Melanoma cytotoxicity assay (resazurin); format: cell-based; details: human, 24 h
Procedure, shortened: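 MALME-3M cells (~4000/well) seeded 24 h, then exposed to compound in triplicate for 24 h at 37° C, 5% CO2. Resazurin added for 6 h, fluorescence read at 544/590 nm; background-subtracted viability normalised to DMSO wells. IC50 from sigmoidal fit of serial dilutions.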

[1] = tested on: 60 different human tumor cell lines; assay: cells

SMILES: C[C@]12CC[C@H]3[C@@H](CC=C4c5sc(Nc6ccccc6)nc5CC[C@@]43C)[C@@H]1CC[C@@H]2O [IIIa.10, (1S,2R,13R,14S,17S,18S)-7-anilino-2,18-dimethyl-8-thia-6-azapentacyclo[11.7.0.02,10.05,9.014,18]icosa-5(9),6,10-trien-17-ol]
- LOX-IMVI (% viability) (LOX IMVI): 27%
- SK-MEL-5 (% viability) (SK-MEL-5): 14.72%
- MALME-3M (% viability) (MALME-3M): 68.28%
- GI50 ([1]; 60 cell): 2.37 µM
- CC50 ([1]; 60 cell, read-out: LC50): 38.4 µM
- GI50 ([1]; 786-0): 1.22 µM
- CC50 ([1]; 786-0, read-out: LC50): 8.87 µM
- GI50 ([1]; A498): 2.16 µM
- CC50 ([1]; A498, read-out: LC50): 20.7 µM
- GI50 ([1]; A549): 2.41 µM
- CC50 ([1]; A549, read-out: LC50): 46.2 µM
- GI50 ([1]; ACHN): 1.71 µM
- CC50 ([1]; ACHN, read-out: LC50): 6.19 µM
- GI50 ([1]; BT-549): 1.38 µM
- CC50 ([1]; BT-549, read-out: LC50): 32.6 µM
- GI50 ([1]; CAKI-1): 2.32 µM
- CC50 ([1]; CAKI-1, read-out: LC50): 19.2 µM
- GI50 ([1]; CCRF-CEM): 1.6 µM
- CC50 ([1]; CCRF-CEM, read-out: LC50): > 100 µM
- GI50 ([1]; COLO 205): 2.45 µM
- CC50 ([1]; COLO 205, read-out: LC50): 50.8 µM
- GI50 ([1]; DU-145): 1.7 µM
- CC50 ([1]; DU-145, read-out: LC50): 7.68 µM
- GI50 ([1]; EKVX): 2.75 µM
- CC50 ([1]; EKVX, read-out: LC50): 63.8 µM
- GI50 ([1]; HCC 2998): 1.97 µM
- CC50 ([1]; HCC 2998, read-out: LC50): 6.42 µM
- GI50 ([1]; HCT-15): 1.6 µM
- CC50 ([1]; HCT-15, read-out: LC50): 30.6 µM
- GI50 ([1]; HCT-116): 1.51 µM
- CC50 ([1]; HCT-116, read-out: LC50): 6.01 µM
- GI50 ([1]; HL-60): 2.02 µM
- CC50 ([1]; HL-60, read-out: LC50): > 100 µM
- GI50 ([1]; HOP-62): 2.47 µM
- CC50 ([1]; HOP-62, read-out: LC50): > 100 µM
- GI50 ([1]; HOP-92): 2.84 µM
- CC50 ([1]; HOP-92, read-out: LC50): 27.4 µM
- GI50 ([1]; HT-29): 2.13 µM
- GI50 ([1]; Hs-578T): 2.16 µM
- CC50 ([1]; Hs-578T, read-out: LC50): > 100 µM
- GI50 ([1]; IGROV-1): 2.78 µM
- CC50 ([1]; IGROV-1, read-out: LC50): > 100 µM
- GI50 ([1]; K562): 2.45 µM
- CC50 ([1]; K562, read-out: LC50): > 100 µM
- GI50 ([1]; KM12): 1.68 µM
- CC50 ([1]; KM12, read-out: LC50): 5.77 µM
- GI50 ([1]; LOX IMVI): 1.33 µM
- CC50 ([1]; LOX IMVI, read-out: LC50): 5.78 µM
- GI50 ([1]; M14): 1.84 µM
- CC50 ([1]; M14, read-out: LC50): 9.9 µM
- GI50 ([1]; MCF7): 1.8 µM
- CC50 ([1]; MCF7, read-out: LC50): > 100 µM
- GI50 ([1]; MDA-MB-231): 1.99 µM
- CC50 ([1]; MDA-MB-231, read-out: LC50): 12.8 µM
- GI50 ([1]; MDA-MB-435): 2.25 µM
- CC50 ([1]; MDA-MB-435, read-out: LC50): 29.7 µM
- GI50 ([1]; MDA-MB-468): 1.72 µM
- CC50 ([1]; MDA-MB-468, read-out: LC50): 6.66 µM
- GI50 ([1]; MOLT-4): 1.87 µM
- CC50 ([1]; MOLT-4, read-out: LC50): > 100 µM
- GI50 ([1]; Malme-3M): 2.19 µM
- CC50 ([1]; Malme-3M, read-out: LC50): 21.9 µM
- GI50 ([1]; NCI-H23): 2.03 µM
- CC50 ([1]; NCI-H23, read-out: LC50): 23.7 µM
- GI50 ([1]; NCI-H226): 2.4 µM
- CC50 ([1]; NCI-H226, read-out: LC50): > 100 µM
- GI50 ([1]; NCI-H322M): 2.88 µM
- CC50 ([1]; NCI-H322M, read-out: LC50): 35.2 µM
- GI50 ([1]; NCI-H460): 1.95 µM
- CC50 ([1]; NCI-H460, read-out: LC50): 8.37 µM
- GI50 ([1]; NCI-H522): 1.9 µM
- CC50 ([1]; NCI-H522, read-out: LC50): 14.3 µM
- GI50 ([1]; NCI/ADR-RES): 3.39 µM
- CC50 ([1]; NCI/ADR-RES, read-out: LC50): > 100 µM
- GI50 ([1]; OVCAR-3): 1.28 µM
- CC50 ([1]; OVCAR-3, read-out: LC50): 5.37 µM
- GI50 ([1]; OVCAR-4): 3.13 µM
- CC50 ([1]; OVCAR-4, read-out: LC50): 56.8 µM
- GI50 ([1]; OVCAR-5): 2.68 µM
- CC50 ([1]; OVCAR-5, read-out: LC50): 34 µM
- GI50 ([1]; OVCAR-8): 3.43 µM
- CC50 ([1]; OVCAR-8, read-out: LC50): 93.7 µM
- GI50 ([1]; RXF 393): 0.798 µM
- CC50 ([1]; RXF 393, read-out: LC50): 5.81 µM
- GI50 ([1]; SF-268): 1.66 µM
- CC50 ([1]; SF-268, read-out: LC50): 6.62 µM
- GI50 ([1]; SK-MEL-2): 2.51 µM
- CC50 ([1]; SK-MEL-2, read-out: LC50): 22.2 µM
- GI50 ([1]; SK-MEL-5): 1.82 µM
- CC50 ([1]; SK-MEL-5, read-out: LC50): 6.4 µM
- GI50 ([1]; SK-MEL-28): 1.68 µM
- CC50 ([1]; SK-MEL-28, read-out: LC50): 9.49 µM
- GI50 ([1]; SK-OV-3): 5.16 µM
- CC50 ([1]; SK-OV-3, read-out: LC50): 51.2 µM
- GI50 ([1]; SN12C): 1.65 µM
- CC50 ([1]; SN12C, read-out: LC50): 6.53 µM
- GI50 ([1]; SNB-19): 1.86 µM
- CC50 ([1]; SNB-19, read-out: LC50): 7.65 µM
- GI50 ([1]; SNB-75): 1.49 µM
- CC50 ([1]; SNB-75, read-out: LC50): 6.24 µM
- GI50 ([1]; SW-620): 2.27 µM
- CC50 ([1]; SW-620, read-out: LC50): 23.2 µM
- GI50 ([1]; T47D): 2.41 µM
- CC50 ([1]; T47D, read-out: LC50): > 100 µM
- GI50 ([1]; TK-10): 2.91 µM
- CC50 ([1]; TK-10, read-out: LC50): 23 µM
- GI50 ([1]; U-251): 1.36 µM
- CC50 ([1]; U-251, read-out: LC50): 5.7 µM
- GI50 ([1]; UACC-62): 1.83 µM
- CC50 ([1]; UACC-62, read-out: LC50): 8.55 µM
- GI50 ([1]; UACC-257): 2.54 µM
- CC50 ([1]; UACC-257, read-out: LC50): 30.5 µM
- GI50 ([1]; UO-31): 1.67 µM
- CC50 ([1]; UO-31, read-out: LC50): 5.56 µM
